Assay results published in publication PMC5567267, “Discovery of a potent protein kinase D inhibitor: insights in the binding mode of pyrazolo[3,4-d]pyrimidine analogues” (MedChemComm, 2017).
Like-named read-outs stand apart in the source and are kept apart here.

Experiments:
[1] = system: PKD; design: method as in Wang group; settings: previously reported value; different assay setup and enzyme preparation; ref Wang group; cited from earlier work
[2] = molecular target: T1, PKD2 (Homo sapiens, UniProt Q9BZL6); experiment: Cellular screening assay using phospho-cortactin (Ser-298) as a readout; type: cell-based; settings: HEK293T cells co-transfected with FLAG-PRKD2 and myc-CTTN; for cellular activity against PKD2 (in words): pSer-298 cortactin western blot; for inhibition at 40 µM: HEK-293T, 40 μM compound, 30 min pretreatment, 500 nM PDB 15 min, read-out: inhibition of PKD2 mediated cortactin Ser-298 phosphorylation
T1 construct: made in house; host or cells: HEK293T cells, transient transfection with pDEST27-PRKD2, stimulated with 500 nM PDB before lysis
T1 sequence (Q9BZL6 1-878): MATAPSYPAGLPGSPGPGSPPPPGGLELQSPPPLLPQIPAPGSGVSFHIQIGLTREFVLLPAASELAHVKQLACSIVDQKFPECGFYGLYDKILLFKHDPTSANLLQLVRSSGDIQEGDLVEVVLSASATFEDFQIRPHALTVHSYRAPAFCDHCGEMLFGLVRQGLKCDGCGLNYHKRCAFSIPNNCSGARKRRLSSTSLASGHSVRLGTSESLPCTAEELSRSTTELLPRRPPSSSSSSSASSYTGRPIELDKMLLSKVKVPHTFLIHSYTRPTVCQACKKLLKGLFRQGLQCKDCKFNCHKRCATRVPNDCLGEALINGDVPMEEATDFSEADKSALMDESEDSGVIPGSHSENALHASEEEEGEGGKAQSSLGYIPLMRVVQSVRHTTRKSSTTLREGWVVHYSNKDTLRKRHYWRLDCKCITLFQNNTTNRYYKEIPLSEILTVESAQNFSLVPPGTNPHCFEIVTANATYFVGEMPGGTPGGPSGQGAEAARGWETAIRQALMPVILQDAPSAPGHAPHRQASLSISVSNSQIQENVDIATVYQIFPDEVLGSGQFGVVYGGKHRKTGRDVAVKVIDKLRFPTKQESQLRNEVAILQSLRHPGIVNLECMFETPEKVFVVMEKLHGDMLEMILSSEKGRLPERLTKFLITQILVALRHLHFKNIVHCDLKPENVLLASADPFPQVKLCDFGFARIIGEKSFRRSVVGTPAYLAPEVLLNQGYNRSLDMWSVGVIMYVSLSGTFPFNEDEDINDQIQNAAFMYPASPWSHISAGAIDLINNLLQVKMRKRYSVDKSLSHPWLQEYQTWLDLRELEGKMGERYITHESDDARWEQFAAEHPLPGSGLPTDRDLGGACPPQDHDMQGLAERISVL
From the text: Therefore we used a cellular assay in which we were able to specifically follow PKD mediated phosphorylation of cortactin, a known PKD substrate, at Ser-298.[15] […] Cortactin phosphorylation at Ser-298 in our assay was PKD-specific, since co-transfection of PKD and cortactin was necessary to produce an adequate signal (data not shown). We selected four compounds for further validation in a cellular assay against PKD2 (Fig. 5).
Fig. 5 The effect of 1-NM-PP1 analogues on PKD mediated phosphorylation of cortactin at Ser-298. HEK293T cells co-transfected with FLAG-PRKD2 and myc-CTTN were pretreated with the indicated compounds for 30 min prior to stimulation with 500 nM Phorbol 12,13-dibutyrate (PDB) for 15 min. Phosphorylation of cortactin was followed via western blot using a home-made pSer-298 antibody and subsequently reprobed for total cortactin (anti-c-Myc; 9E10) and PKD (anti-FLAG M2). Quantification of pSer-298/c-Myc signals of three independent experiments is shown in the graph below. […]
Cellular screening assay using phospho-cortactin as a readout
HEK293T cells were seeded in a 12-well plate at 150.000 cells/well. The next day, cells were transfected with 0.5µg of pcDNA3-Myc-CTTN and 0.5µg of pdcDNA-FLAG-PRKD2. Forty-eight hours after transfection, cells were incubated with compound at the indicated concentrations for 30 min, followed by stimulation with 500nM phorbol 12,13-dibutyrate (PDB) for 15 min. Subsequently, cells were lysed in 50mM Tris pH 7.4, 15mM EDTA, 150mM NaCl, 0.1% (v/v) NP-40 and 25% (v/v) glycerol. Protein quantitation was determined via a Bradford assay. Equal amounts of lysate (30µg) were loaded on a SDS-polyacrylamide gel and subjected to immunoblotting. Blots were probed with Cortactin pSer-298 antibody (home-made) and anti-tubulin antibody (Sigma, St. Louis, Missouri). Subsequently, blots were stripped and reprobed with anti-Myc 9E10 (Sigma, St.
Louis, Missouri) for cortactin and anti-FLAG M2 (Sigma, St. Louis, Missouri) for PKD2.

[3] = molecular target: T1, PKD2; experiment: PKD2 screening assay (in vitro radiometric kinase assay); type: biochemical; settings: for remaining activity at 1 µM: 10 min
Protocol: All 35 described analogues were characterized in vitro via an initial screening at 1 μM against PKD2. […]
scanning of a coomassie stained SDS-polyacrylamide gel.
An in vitro radiometric assay was used to determine the inhibition of PKD in presence of various compounds at a […]
determinations. Reactions were carried out in 40µl of a mixture containing 50mM Tris-HCl pH 7.4, 10mM MgCl2, 50ng of PDB stimulated GST-PKD2, 4µg/ml Syntide-2 (Sigma Aldrich, St. Louis, USA), 25µM ATP and 2µCi [γ-32P]ATP (Perkin-Elmer, Massachusetts, USA). After 10’ the reaction was stopped by spotting 30µl of the reaction on whatmann P81 filter paper. The filter papers were washed 3 times in 0.5% phosphoric acid, followed by one wash in 100% acetone. Subsequently the papers were air-dried and counted using the Tri-Carb 2810 TR scintillation counter (Perkin-Elmer). Percentage of PKD2 inhibition was determined relative to a condition where no inhibitor was added (0,1% dimethylsulfoxide (DMSO)). Graphs were plotted and IC50 values were determined using the GraphPad software package (Prism). […]

[4] = ESI table, initial screening of all analogues at 1µM, read-out: % PKD2 activity remaining (1µM) (average ±SD)
[5] = compound at 1 μM, PDB stimulated GST-PKD2, Syntide-2, 25µM ATP, relative to no inhibitor (DMSO), read-out: % PKD 2 activity remaining (1 μM) (Average ± SD)
[6] = PDB stimulated GST-PKD2, Syntide-2, 25µM ATP, radiometric

For `CC(C)(C)n1nc(Cc2cccc3ccccc23)c2c(N)ncnc21` [Compound 1, 1-tert-butyl-3-(1-naphthylmethyl)-1H-pyrazolo[3,4-d]pyrimidin-4-amine, reference compound], the IC50 [1] is given as 0.133 µM, the “cellular activity against PKD2 (in words)” value (shortened to “cellular activity”) [2] is given as “dose-dependent inhibition” and the inhibition at 40 µM [2] is given as 50%. The remaining activity at 1 µM [3, 4] was 23 ± 1.7%, the remaining activity at 1 µM [3, 5] was 23 ± 1.7% and the IC50 [3, 6] was 0.398 µM.
In the case of `CCCCNc1nc(N)c2c(-c3cccc4ccccc34)nn(C(C)(C)C)c2n1` [Compound 13h, N6-butyl-1-tert-butyl-3-(1-naphthyl)-1H-pyrazolo[3,4-d]pyrimidine-4,6-diamine], the “cellular activity” value [2] is reported as “negligible cellular activity”, the remaining activity at 1 µM [3, 4] is reported as 89 ± 6.2% and the remaining activity at 1 µM [3, 5] is reported as 89 ± 6.2%. For the same compound, the IC50 [3, 6] was 8.17 µM.
In the case of `CC(C)(C)n1nc(-c2cc3ccccc3s2)c2c(N)ncnc21` [Compound 6l], the “cellular activity” value [2] is reported as “did not show cellular activity”, the remaining activity at 1 µM [3, 4] is reported as 53 ± 7.1% and the remaining activity at 1 µM [3, 5] is reported as 53 ± 7.1%. It also gave an IC50 [3, 6] of 2.21 µM.
For `CC(C)(C)n1nc(-c2c[nH]c3ccccc23)c2c(N)ncnc21` [Compound 18, 1-tert-butyl-3-(1H-indol-3-yl)-1H-pyrazolo[3,4-d]pyrimidin-4-amine], the “cellular activity” value [2] was “dose-dependent inhibition”, the inhibition at 40 µM [2] was 85% and the remaining activity at 1 µM [3, 4] was 8 ± 0.8%. The remaining activity at 1 µM [3, 5] was 8 ± 0.8%, the IC50 [3, 6] was 0.033 µM and the “fold increase in potency compared to 1-NM-PP1” value ([3]; PKD2 IC50 relative to 1-NM-PP1) was 10 fold. For the same compound, the IC50 ([3]; in vitro potency as stated in the conclusions) was roughly 0.033 µM.
